Reference: DBAASP
≈ marks a conversion by molar mass, not a printed value. Where “and” joins values, the source holds several entries; their conditions need not be identical. Identical values can stand only once.

What was measured:
Test in all cases: ≥ marks a high value that may be exact or a test limit, other limits are often not marked, values filed in µg/mL are converted to µM
[1] = test system: Staphylococcus aureus 215
[2] = test system: Enterococcus faecalis 1F-1
[3] = test system: Proteus mirabilis ATCC 35659
[4] = test system: Bacillus subtilis ATCC 6051
[5] = test system: Staphylococcus aureus ATCC 29213
[6] = test system: Enterococcus faecium 5F-10
[7] = test system: Enterococcus faecalis A4
[8] = test system: Enterococcus faecium 4W-9
[9] = test system: Bacillus licheniformis ATCC 14580
[10] = test system: Pseudomonas aeruginosa PAO1
[11] = test system: Staphylococcus aureus MR
[12] = test system: Bacillus cereus ATCC 14579
[13] = test system: Escherichia coli ATCC 25922
[14] = test system: Salmonella enterica ATCC H9812
[15] = test system: Bacillus amyloliquefaciens ATCC 23842
[16] = test system: Klebsiella oxytoca
[17] = test system: Staphylococcus aureus ATCC 1717
[18] = test system: Enterobacter cloacae
[19] = test system: Escherichia coli NDM-1
[20] = test system: Enterococcus faecalis
[21] = test system: Klebsiella pneumoniae NDM-1
[22] = test system: Salmonella typhimurium PY1
[23] = test system: Morganella morganii
[24] = test system: Escherichia coli O157:H7
[25] = test system: Pseudomonas aeruginosa ATCC 15692
[26] = test system: Citrobacter freundii
[27] = test system: Bacillus subtilis ATCC 23857
[28] = test system: Staphylococcus aureus ATCC 25923
[29] = test system: Acinetobacter baumannii KCTC 2508
[30] = test system: Bacillus subtilis KCTC 2217
[31] = test system: Salmonella typhimurium KCTC 1926
[32] = test system: Pseudomonas aeruginosa CCARM 2095
[33] = test system: Pseudomonas aeruginosa KCTC 1637
[34] = test system: Staphylococcus aureus CCARM 3089
[35] = test system: Enterococcus faecium ATCC 51559
[36] = test system: Staphylococcus aureus CCARM 3090
[37] = test system: Staphylococcus aureus KCTC 1621
[38] = test system: Escherichia coli KCTC 1682
[39] = test system: Staphylococcus epidermidis KCTC 1917
[40] = test system: Bacillus subtilis KCTC 3068
[41] = test system: Staphylococcus aureus CCARM 3095
[42] = test system: Pseudomonas aeruginosa ATCC 27853
[43] = test system: Salmonella enterica subsp. enterica serovar Typhimurium ATCC 14028
[44] = test system: Pseudomonas aeruginosa ATCC 21630
[45] = test system: Pseudomonas aeruginosa ATCC 21625
[46] = test system: Bacillus subtilis ATCC 11060
[47] = test system: Escherichia coli ER2566
[48] = test system: Pseudomonas aeruginosa ATCC 10419
[49] = test system: Escherichia coli 078
[50] = test system: Escherichia coli CMCC 44102
[51] = test system: Escherichia coli CVCC 1515
[52] = test system: Staphylococcus epidermidis ATCC 12228
[53] = test system: Escherichia coli UB1005
[54] = test system: Salmonella enterica subsp. enterica serovar Pullorum C79-13
[55] = test system: Salmonella enterica subsp. enterica serovar Typhimurium C77-31
[56] = test system: Enterococcus faecalis ATCC 29212
[57] = test system: Escherichia coli K88

Structure (SMILES): CC(C)C[C@H](NC(=O)[C@H](CC(C)C)NC(=O)[C@@H](N)CCC(=O)O)C(=O)N[C@@H](CO)C(=O)N[C@@H](CCCN=C(N)N)C(=O)N[C@H](C(=O)N[C@@H](CC(=O)O)C(=O)O)C(C)C [ELLSRVD]
- MIC [1]: 4.81 µM (≈ 4 µg/mL)
- MIC [2]: ≥ 154 µM
- MIC [3]: ≥ 154 µM
- MIC [4]: ≥ 77 µM
- MIC [5]: 4.81 µM (≈ 4 µg/mL)
- MIC [6]: ≥ 154 µM
- MIC [7]: ≥ 154 µM
- MIC [8]: ≥ 154 µM
- MIC [9]: ≥ 77 µM
- MIC [10]: > 154 µM
- MIC [11]: 3.4 µM (≈ 2.83 µg/mL)
- MIC [12]: ≥ 77 µM
- MIC [13]: > 154 µM
- MIC [14]: ≥ 154 µM
- MIC [15]: ≥ 77 µM

Structure (SMILES): CC[C@H](C)[C@H](NC(=O)CN)C(=O)N[C@H](C(=O)N[C@@H](C)C(=O)NCC(=O)N[C@H](C(=O)N[C@H](C(=O)N[C@H](C(=O)N[C@@H](CCCCN)C(=O)N[C@H](C(=O)N[C@@H](CCCCN)C(=O)N[C@@H](CCCCN)C(N)=O)[C@@H](C)CC)[C@@H](C)CC)[C@@H](C)CC)[C@@H](C)CC)[C@@H](C)CC [GIIAGIIIKIKK]
- MIC [16]: 16 µM (≈ 20.3 µg/mL)
- MIC [17]: ≥ 128 µM
- MIC [18]: 22.6 µM (≈ 28.6 µg/mL)
- MIC [19]: 16 µM (≈ 20.3 µg/mL)
- MIC [20]: 16 µM (≈ 20.3 µg/mL)
- MIC [21]: 22.6 µM (≈ 28.6 µg/mL)
- MIC [22]: ≥ 64 µM
- MIC [23]: ≥ 128 µM
- MIC [24]: ≥ 32 µM
- MIC [25]: ≥ 64 µM
- MIC [26]: 8 µM (≈ 10.1 µg/mL)
- MIC [27]: 8 µM (≈ 10.1 µg/mL)

Structure (SMILES): CC(C)C[C@H](NC(=O)[C@H](CCCCN)NC(=O)[C@H](CCCCN)NC(=O)[C@H](CC(C)C)NC(=O)[C@H](CC(C)C)NC(=O)[C@H](CCCCN)NC(=O)[C@H](CCCCN)NC(=O)[C@H](CC(C)C)NC(=O)[C@H](CC(C)C)NC(=O)[C@@H]1CCCN1C(=O)[C@H](CCCCN)NC(=O)[C@@H](N)CCCCN)C(N)=O [KKPLLKKLLKKL]
- MIC [28]: 1.56 µM and > 0.78 µM
- MIC [29]: 25 µM (≈ 36.2 µg/mL)
- MIC [30]: 1.56 µM (≈ 2.26 µg/mL)

Structure (SMILES): CC[C@H](C)[C@H](NC(=O)[C@@H](NC(=O)[C@H](Cc1cnc[nH]1)NC(=O)[C@H](CCCN=C(N)N)NC(=O)[C@H](C)NC(=O)[C@H](CCCN=C(N)N)NC(=O)[C@H](CC(C)C)NC(=O)[C@H](CO)NC(=O)[C@H](C)NC(=O)[C@H](CO)NC(=O)[C@H](CC(C)C)NC(=O)[C@@H](N)CC(N)=O)[C@@H](C)O)C(=O)N1CCC[C@H]1C(=O)N[C@@H](CCC(N)=O)C(=O)N[C@@H](CO)C(=O)N[C@@H](CCCN=C(N)N)C(=O)N[C@@H](CCCCN)C(=O)N[C@@H](Cc1ccccc1)C(=O)NCC(=O)N[C@@H](CCCN=C(N)N)C(=O)N[C@@H](CCCN=C(N)N)C(=O)O [NLSASLRARHTIPQSRKFGRR]
- MIC [31]: 6.3 µM (≈ 15.4 µg/mL)
- MIC [32]: 12.5 µM (≈ 30.6 µg/mL)
- MIC [33]: 6.3 µM (≈ 15.4 µg/mL)
- MIC [34]: 25 µM (≈ 61.3 µg/mL)
- MIC [35]: ≥ 50 µM
- MIC [36]: ≥ 50 µM
- MIC [37]: 12.5 µM (≈ 30.6 µg/mL)
- MIC [38]: 6.3 µM (≈ 15.4 µg/mL)
- MIC [39]: 6.3 µM (≈ 15.4 µg/mL)
- MIC [40]: 12.5 µM (≈ 30.6 µg/mL)
- MIC [41]: 25 µM (≈ 61.3 µg/mL)

Structure (SMILES): CC[C@H](C)[C@H](NC(=O)[C@H](CCCCN)NC(=O)[C@H](CCCN=C(N)N)NC(=O)[C@H](CC(C)C)NC(=O)[C@H](Cc1ccccc1)NC(=O)[C@H](CCCN=C(N)N)NC(=O)CNC(=O)[C@H](Cc1ccccc1)NC(=O)[C@@H](N)CCCN=C(N)N)C(=O)N[C@@H](CCCN=C(N)N)C(=O)N[C@@H](CCCN=C(N)N)C(=O)N[C@@H](Cc1ccccc1)C(=O)N[C@@H](CCCN=C(N)N)C(=O)N1CCC[C@H]1C(=O)N[C@@H](CCCCN)C(=O)N[C@H](C(=O)N[C@H](C(=O)N[C@H](C(=O)N[C@H](C(=O)N[C@H](C(=O)N[C@@H](CCC(N)=O)C(=O)NCC(=O)N[C@@H](CO)C(=O)N[C@@H](C)C(=O)N[C@@H](CCCN=C(N)N)C(=O)N[C@@H](Cc1ccccc1)C(=O)NCC(N)=O)[C@@H](C)CC)[C@@H](C)O)[C@@H](C)CC)[C@@H](C)O)C(C)C [RFGRFLRKIRRFRPKVTITIQGSARFG]
- MIC [42]: 1.99 µM (≈ 6.5 µg/mL)
- MIC [43]: 4.01 µM (≈ 13.1 µg/mL)
- MIC [44]: 7.99 µM (≈ 26.1 µg/mL)
- MIC [45]: 1.99 µM (≈ 6.5 µg/mL)
- MIC [46]: 16 µM (≈ 52.2 µg/mL)
- MIC [47]: 0.49 µM (≈ 1.6 µg/mL)
- MIC [48]: 4.01 µM (≈ 13.1 µg/mL)
- MIC [5]: 1.99 µM (≈ 6.5 µg/mL)
- MIC [28]: 1.01 µM (≈ 3.3 µg/mL)
- MIC [49]: 7.99 µM (≈ 26.1 µg/mL)
- MIC [50]: 1.01 µM (≈ 3.3 µg/mL)
- MIC [51]: 7.99 µM (≈ 26.1 µg/mL)
- MIC [52]: 16 µM (≈ 52.2 µg/mL)
- MIC [53]: 1.01 µM (≈ 3.3 µg/mL)
- MIC [54]: 4.01 µM (≈ 13.1 µg/mL)
- MIC [13]: 1.99 µM and 3.83 µM
- MIC [55]: 4.01 µM (≈ 13.1 µg/mL)
- MIC [56]: 16 µM (≈ 52.2 µg/mL)
- MIC [57]: 1.99 µM (≈ 6.5 µg/mL)
